pIC50: −log10 of the molar value.
Biological target: recombinant PI3K δ enzyme (Homo sapiens (Human), UniProt O00329)
Experiment: In vitro enzyme assay (Kinase-Glo luminescent kinase assay), PI3Kδ
Assay type: biochemical
Experimental: The Kinase-Glo luminescent kinase assay kit (from Promega) was used to measure kinase activity. In this assay, amount of ATP remaining in solution following a kinase reaction is measured. The effect of compounds on PI3Kδ inhibition was carried out by adding 2.29 μg/ml of recombinant PI3K δ enzyme (Proteros, Germany) to reaction mixture containing assay buffer (50 mM HEPES, pH 7.4, 50 mM NaCl, 0.05% CHAPS) supplemented with 10 mM MgCl2, 5 mM DTT, 60 μM Phosphatidyl inositol bisphosphate (PIP2) and 10 μM ATP in the absence or presence of different concentrations of the compounds in a final volume of 15 μl/well, in a 384 well plate. The reaction mixture was incubated for 2 hours at room temperature. At the end of incubation period the equal volume of Kinase-Glo plus (Promega, V3772), was added per well and the luminescence was measured after incubating for 10 minutes at room temperature in dark. Results were calculated by measuring the luminescence units of test samples to blanks containing no enzyme.
The compounds of the present invention were tested for their selectivity for PI3Kδ over PI3Kα, PI3Kβ and PI3Kγ following the above assay using specific recombinant enzymes (Proteros, Germany) for each kinase. Assay condition of kinase assay (PI3Kα, PI3Kβ, PI3Kγ and PI3Kδ) was as follows. Enzyme: 2.29 μg/mL; ATP: 10 μM; PIP2 substrate: 60 μM and Reaction Time: 2 hours.

Sequence of recombinant PI3K δ enzyme (O00329 whole entry, species assumed): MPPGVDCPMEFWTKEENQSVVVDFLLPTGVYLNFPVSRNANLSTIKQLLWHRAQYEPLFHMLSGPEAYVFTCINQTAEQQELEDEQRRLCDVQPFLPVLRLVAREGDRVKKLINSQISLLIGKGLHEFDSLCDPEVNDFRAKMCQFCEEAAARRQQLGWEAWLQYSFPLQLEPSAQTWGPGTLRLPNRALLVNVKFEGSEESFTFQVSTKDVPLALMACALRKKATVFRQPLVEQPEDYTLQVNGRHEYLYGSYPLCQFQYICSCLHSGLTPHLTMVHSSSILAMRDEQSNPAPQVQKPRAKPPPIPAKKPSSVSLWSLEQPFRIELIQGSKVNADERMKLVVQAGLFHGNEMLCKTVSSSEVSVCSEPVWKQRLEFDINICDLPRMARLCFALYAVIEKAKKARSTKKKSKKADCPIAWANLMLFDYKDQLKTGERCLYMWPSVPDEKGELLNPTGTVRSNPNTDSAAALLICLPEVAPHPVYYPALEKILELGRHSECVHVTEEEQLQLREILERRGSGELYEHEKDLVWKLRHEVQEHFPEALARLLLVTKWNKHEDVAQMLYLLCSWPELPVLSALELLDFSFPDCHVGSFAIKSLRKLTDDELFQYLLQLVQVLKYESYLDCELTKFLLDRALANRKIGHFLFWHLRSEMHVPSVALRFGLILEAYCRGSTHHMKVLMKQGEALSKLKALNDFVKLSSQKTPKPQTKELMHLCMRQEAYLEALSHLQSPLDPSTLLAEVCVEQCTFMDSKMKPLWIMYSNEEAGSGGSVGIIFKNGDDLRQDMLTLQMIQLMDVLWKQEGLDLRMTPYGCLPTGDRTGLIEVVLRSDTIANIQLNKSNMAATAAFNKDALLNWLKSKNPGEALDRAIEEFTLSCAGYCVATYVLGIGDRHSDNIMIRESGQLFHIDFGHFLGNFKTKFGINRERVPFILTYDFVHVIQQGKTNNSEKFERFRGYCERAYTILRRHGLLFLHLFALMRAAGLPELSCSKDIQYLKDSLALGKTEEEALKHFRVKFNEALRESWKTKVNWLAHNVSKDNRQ
Sequence of recombinant PI3K δ enzyme (P27986 whole entry partner, species assumed): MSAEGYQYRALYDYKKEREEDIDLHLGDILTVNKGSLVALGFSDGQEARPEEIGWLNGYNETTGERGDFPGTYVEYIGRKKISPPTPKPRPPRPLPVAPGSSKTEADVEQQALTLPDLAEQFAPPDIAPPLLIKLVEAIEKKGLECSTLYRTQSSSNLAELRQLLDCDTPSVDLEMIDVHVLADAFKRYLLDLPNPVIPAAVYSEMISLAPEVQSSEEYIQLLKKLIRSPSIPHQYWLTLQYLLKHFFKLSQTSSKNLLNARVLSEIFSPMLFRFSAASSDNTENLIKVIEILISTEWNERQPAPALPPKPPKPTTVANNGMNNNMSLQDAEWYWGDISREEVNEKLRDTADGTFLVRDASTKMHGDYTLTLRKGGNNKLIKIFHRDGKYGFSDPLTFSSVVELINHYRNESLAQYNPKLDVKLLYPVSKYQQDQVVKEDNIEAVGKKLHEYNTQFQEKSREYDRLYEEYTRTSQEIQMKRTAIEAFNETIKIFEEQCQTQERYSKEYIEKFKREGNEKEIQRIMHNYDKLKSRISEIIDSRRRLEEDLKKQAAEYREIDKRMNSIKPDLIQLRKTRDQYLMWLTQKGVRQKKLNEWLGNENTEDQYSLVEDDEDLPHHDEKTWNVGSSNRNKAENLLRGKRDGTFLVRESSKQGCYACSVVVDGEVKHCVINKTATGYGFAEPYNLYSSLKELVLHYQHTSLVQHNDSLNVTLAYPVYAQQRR

Structure (SMILES)	pIC50
Cn1cc(-c2nc(N3CCOCC3)c3nc(C(=O)NCCCN4CCOCC4)[nH]c3n2)cn1 [compound 63, 2-(1-Methyl-1H-pyrazol-4-yl)-6-(morpholin-4-yl)-N-[3-(morpholin-4-yl)propyl]-9H-purine-8-carboxamide]	7.68
Cc1n[nH]cc1-c1nc(N2CCOCC2)c2nc(C(=O)N3CCC(N4CCOCC4)CC3)[nH]c2n1 [compound 66, [2-(3-Methyl-1H-pyrazol-4-yl)-6-(morpholin-4-yl)-9H-purin-8-yl][4-(morpholin-4-yl)piperidin-1-yl]methanone]	7.68
CCN(CCCN1CCOCC1)C(=O)c1nc2c(N3CCOCC3)nc(-c3cnn(C)c3)nc2[nH]1 [compound 69, N-ethyl-2-(1-methyl-1H-pyrazol-4-yl)-6-(morpholin-4-yl)-N-[3-(morpholin-4-yl)propyl]-9H-purine-8-carboxamide]	7.21
CN1CCN(CCNC(=O)c2nc3c(N4CCOCC4)nc(-c4cnn(C)c4)nc3[nH]2)CC1 [compound 70, N-[2-(4-methylpiperazin-1-yl)ethyl]-2-(1-methyl-1H-pyrazol-4-yl)-6-(morpholin-4-yl)-9H-purine-8-carboxamide]	7.27
Cc1nn(C)cc1-c1nc(N2CCOCC2)c2nc(C(=O)NCC3(CO)COC3)[nH]c2n1 [compound 71, 2-(1,3-Dimethyl-1H-pyrazol-4-yl)-N-{[3-(hydroxymethyl)oxetan-3-yl]methyl}-6-(morpholin-4-yl)-9H-purine-8-carboxamide]	7.52
Cn1cc(-c2nc(N3CCOCC3)c3nc(C(=O)NCCCN4CCCC4=O)n(C)c3n2)cn1 [compound 73, 9-Methyl-2-(1-methyl-1H-pyrazol-4-yl)-6-(morpholin-4-yl)-N-[3-(2-oxopyrrolidin-1-yl)propyl]-9H-purine-8-carboxamide]	7.22
O=C(c1nc2c(N3CCOCC3)nc(-c3cn[nH]c3)nc2[nH]1)N1CCC(N2CCOCC2=O)CC1 [compound 74, 4-(1-{[6-(Morpholin-4-yl)-2-(1H-pyrazol-4-yl)-9H-purin-8-yl]carbonyl}piperidin-4-yl)morpholin-3-one]	8.10
Cn1cc(-c2nc(N3CCOCC3)c3nc(C(=O)NCC(C)(C)CO)[nH]c3n2)cn1 [compound 76, N-(3-hydroxy-2,2-dimethylpropyl)-2-(1-methyl-1H-pyrazol-4-yl)-6-(morpholin-4-yl)-9H-purine-8-carboxamide]	7.00
Cn1cc(-c2nc3[nH]c(C(=O)N4CCN5C(=O)COC[C@H]5C4)nc3c(N3CCOCC3)c2F)cn1 [compound 80, (9aR)-8-{[6-Fluoro-5-(1-methyl-1H-pyrazol-4-yl)-7-(morpholin-4-yl)-3H-imidazo[4,5-b]pyridin-2-yl]carbonyl}hexahydropyrazino[2,1-c][1,4]oxazin-4(3H)-one]	6.71
Cn1cc(-c2nc3[nH]c(C(=O)N4CCN(C5CCOCC5)CC4)nc3c(N3CCOCC3)c2F)cn1 [compound 81, [6-Fluoro-5-(1-methyl-1H-pyrazol-4-yl)-7-(morpholin-4-yl)-3H-imidazo[4,5-b]pyridin-2-yl][4-(tetrahydro-2H-pyran-4-yl)piperazin-1-yl]methanone]	8.15
Cc1nn(C)cc1-c1nc2c(nc(C(=O)N3CCC(N4CCOCC4)CC3)n2CC2CC2)c(N2CCOCC2)c1F [compound 83, [3-(Cyclopropylmethyl)-5-(1,3-dimethyl-1H-pyrazol-4-yl)-6-fluoro-7-(morpholin-4-yl)-3H-imidazo[4,5-b]pyridin-2-yl][4-(morpholin-4-yl)piperidin-1-yl]methanone]	7.04
Cc1nn(C)c(C)c1-c1nc2[nH]c(C(=O)N3CCC(N4CCOCC4)CC3)nc2c(N2CCOCC2)c1C [compound 88, [6-Methyl-7-(morpholin-4-yl)-5-(1,3,5-trimethyl-1H-pyrazol-4-yl)-3H-imidazo[4,5-b]pyridin-2-yl][4-(morpholin-4-yl)piperidin-1-yl]methanone]	6.44

— patent US10174035B2, “6-morpholinyl-2-pyrazolyl-9H-purine derivatives and their use as PI3K inhibitors” (Daiichi Sankyo Company, Limited, priority 2015, dated 2019)
